Assay results from US5776899A, “Polypeptide and anti-HIV agent prepared therefrom” (Seikagaku Corporation, priority 1993, dated 1998).
Values after ≈ are worked out from the molar mass of the structure shown. “Also recorded” adds a separate entry of the source. Positions of bridges follow the written chain, without caps; N, C: chain ends. Non-standard residues stand in square brackets, D forms with d. Residues, ends and D or L forms follow the SMILES beside them. *: point of attachment. FITC = O=C1OC2(c3ccc(O)cc3Oc3cc(O)ccc32)c2ccc(NC(=S)*)cc21; Myristoyl = CCCCCCCCCCCCCC(=O)*; dOrn = NCCC[C@@H](N)C(=O)O; GABA = NCCCC(=O)O

What was measured:
[1] = test system: MT-4 cells; assay: Cytotoxicity on virus-non-infected MT-4 cells (MTT method); type: cell-based
Method: (§1) HIV-infected MT-4 cells (2.5×10^4 cells/well, multiplicity of infection (MOI): 0.001) immediately after infection were added together with the test substance with various changes of the concentration to a 96-well microtitre plate. After incubation at 37° C. for 5 days in a CO2 incubator, the number of survivor cells was measured by the MTT method [Pauwels et al.; J. Virol. […] On the other hand, in order to know the cytotoxicity of the test substance on the MT-4 cells, virus-non-infected cells were incubated, likewise as above, together with the test compound with various changes of the concentration. […] Further, the rough ratio of CC50 to EC50, (CC50 /EC50) is expressed as an effective ratio (SI).

[2] = test system: human immunodeficiency virus (HIV); assay: Antiviral activity against HIV in HIV-infected MT-4 cells (MTT method); type: cell-based; conditions: for SI: rough ratio CC50/EC50
Method: as §1

[3] = Table 5, method of Example 2, virus-non-infected MT-4 cells
[4] = Table 5, method of Example 2, HIV-infected MT-4 cells
[5] = Table 4, virus-non-infected MT-4 cells, 5 days
[6] = Table 4, HIV-infected MT-4 cells, MOI 0.001, 5 days

| Structure (SMILES) | CC50 [1, 3] | SI (CC50/EC50) ([2]; Table 5) | EC50 [2, 4] | CC50 [1, 5] | cytotoxicity compared with reference compound (in words) ([1]; text comment on Table 4) | EC50 [2, 6] | SI ([2]; Table 4) | anti-HIV activity compared with reference compound (in words) ([2]; text comment on the anti-HIV results) |
| --- | --- | --- | --- | --- | --- | --- | --- | --- |
| N=C(N)NCCC[C@H](NC(=O)[C@@H]1CSSC[C@H](NC(=O)[C@H](Cc2c[nH]c3ccccc23)NC(=O)[C@H](CCCNC(=N)N)NC(=O)[C@@H](N)CCCNC(=N)N)C(=O)N[C@@H](Cc2ccc(O)cc2)C(=O)N[C@@H](CCCNC(=N)N)C(=O)N[C@@H](CCCCN)C(=O)N[C@H](CCCCNC(=O)CCCN)C(=O)N2CCC[C@H]2C(=O)N[C@@H](Cc2ccc(O)cc2)C(=O)N[C@@H](CCCNC(=N)N)C(=O)N[C@@H](CCCCN)C(=O)N1)C(N)=O (H-RRWCYRK[dK](GABA)PYRKCR-NH2; disulfide 4-13) | 138.07 µg/mL (≈ 66.3 µM) | 11095 | 0.0165 µg/mL (≈ 0.00793 µM) | – | – | – | – | – |
| N=C(N)NCCC[C@H](NC(=O)[C@@H]1CSSC[C@H](NC(=O)[C@H](Cc2c[nH]c3ccccc23)NC(=O)[C@H](CCCNC(=N)N)NC(=O)[C@@H](N)CCCNC(=N)N)C(=O)N[C@@H](Cc2ccc(O)cc2)C(=O)N[C@@H](CCCNC(=N)N)C(=O)N[C@@H](CCCCN)C(=O)N[C@H](CCCCNC(=O)CN)C(=O)N2CCC[C@H]2C(=O)N[C@@H](Cc2ccc(O)cc2)C(=O)N[C@@H](CCCNC(=N)N)C(=O)N[C@@H](CCCCN)C(=O)N1)C(N)=O (H-RRWCYRK[dK](Gly)PYRKCR-NH2; disulfide 4-13) | 44.26 µg/mL (≈ 21.6 µM) | – | 0.03 µg/mL (≈ 0.0146 µM) | – | – | – | – | – |
| N=C(N)NCCC[C@H](NC(=O)[C@@H]1CSSC[C@H](NC(=O)[C@H](Cc2c[nH]c3ccccc23)NC(=O)[C@H](CCCNC(=N)N)NC(=O)[C@@H](N)CCCNC(=N)N)C(=O)N[C@@H](Cc2ccc(O)cc2)C(=O)N[C@@H](CCCNC(=N)N)C(=O)N[C@@H](CCCCN)C(=O)N[C@H](CCCCN)C(=O)N2CCC[C@H]2C(=O)N[C@@H](Cc2ccc(O)cc2)C(=O)N[C@@H](CCCNC(=N)N)C(=O)N[C@@H](CCCCN)C(=O)N1)C(N)=O [Polypeptide (1), Arg--Arg--Trp--Cys--Tyr--Arg--Lys--DLys--Pro--Tyr--Arg--Lys--Cys--Arg--NH2] (H-RRWCYRK[dK]PYRKCR-NH2; disulfide 4-13) | 65.37 µg/mL (≈ 32.7 µM) | 3352 | 0.0195 µg/mL (≈ 0.00977 µM) | 49.8 µg/mL (≈ 24.9 µM) | the same cytotoxicity as that of T-22; also recorded: extremely low cytotoxicity | 0.0034 µg/mL (≈ 0.0017 µM) | 14,647 | one-third the concentration of T-22; also recorded: slightly higher |
| N=C(N)NCCC[C@H](NC(=O)[C@@H]1CSSC[C@H](NC(=O)[C@H](Cc2c[nH]c3ccccc23)NC(=O)[C@H](CCCNC(=N)N)NC(=O)[C@@H](N)CCCNC(=N)N)C(=O)N[C@@H](Cc2ccc(O)cc2)C(=O)N[C@@H](CCCNC(=N)N)C(=O)N[C@@H](CCCCN)C(=O)N[C@@H](CCCCN)C(=O)NCC(=O)N[C@@H](Cc2ccc(O)cc2)C(=O)N[C@@H](CCCNC(=N)N)C(=O)N[C@@H](CCCCN)C(=O)N1)C(N)=O [Polypeptide (3), Arg--Arg --Trp--Cys--Tyr--Arg--Lys --Lys--Gly --Tyr--Arg--Lys--Cys--Arg--NH2] (H-RRWCYRKKGYRKCR-NH2; disulfide 4-13) | 198.18 µg/mL (≈ 101 µM) | 3477 | 0.057 µg/mL (≈ 0.0291 µM) | – | – | – | – | – |
| N=C(N)NCCC[C@H](NC(=O)[C@@H]1CSSC[C@H](NC(=O)[C@H](Cc2c[nH]c3ccccc23)NC(=O)[C@H](CCCNC(=N)N)NC(=O)[C@@H](N)CCCNC(=N)N)C(=O)N[C@@H](Cc2ccc(O)cc2)C(=O)N[C@@H](CCCNC(=N)N)C(=O)N[C@@H](CCCCN)C(=O)N2CCC[C@H]2C(=O)N[C@H](CCCCN)C(=O)N[C@@H](Cc2ccc(O)cc2)C(=O)N[C@@H](CCCNC(=N)N)C(=O)N[C@@H](CCCCN)C(=O)N1)C(N)=O [Polypeptide (5), Arg--Arg --Trp--Cys--Tyr--Arg--Lys --Pro--DLys --Tyr--Arg--Lys--Cys--Arg--NH2] (H-RRWCYRKP[dK]YRKCR-NH2; disulfide 4-13) | 101.20 µg/mL (≈ 50.7 µM) | 1321 | 0.076 µg/mL (≈ 0.0381 µM) | – | – | – | – | – |
| N=C(N)NCCC[C@H](NC(=O)[C@@H]1CSSC[C@H](NC(=O)[C@H](Cc2c[nH]c3ccccc23)NC(=O)[C@H](CCCNC(=N)N)NC(=O)[C@@H](N)CCCNC(=N)N)C(=O)N[C@@H](Cc2ccc(O)cc2)C(=O)N[C@@H](CCCNC(=N)N)C(=O)N[C@@H](CCCCN)C(=O)N[C@H](CCCN)C(=O)N2CCC[C@H]2C(=O)N[C@@H](Cc2ccc(O)cc2)C(=O)N[C@@H](CCCNC(=N)N)C(=O)N[C@@H](CCCCN)C(=O)N1)C(N)=O [Polypeptide (6), Arg--Arg --Trp--Cys--Tyr--Arg--Lys --DOrn--Pro --Tyr--Arg--Lys--Cys--Arg--NH2] (H-RRWCYRK[dOrn]PYRKCR-NH2; disulfide 4-13) | 55.93 µg/mL (≈ 28.2 µM) | 2728 | – | – | – | – | – | – |
| CC(=O)N[C@@H](CCCNC(=N)N)C(=O)N[C@@H](CCCNC(=N)N)C(=O)N[C@@H](Cc1c[nH]c2ccccc12)C(=O)N[C@H]1CSSC[C@@H](C(=O)N[C@@H](CCCNC(=N)N)C(N)=O)NC(=O)[C@H](CCCCN)NC(=O)[C@H](CCCNC(=N)N)NC(=O)[C@H](Cc2ccc(O)cc2)NC(=O)[C@@H]2CCCN2C(=O)[C@@H](CCCCN)NC(=O)[C@H](CCCCN)NC(=O)[C@H](CCCNC(=N)N)NC(=O)[C@H](Cc2ccc(O)cc2)NC1=O [Polypeptide (14), Ac--Arg--Arg --Trp--Cys--Tyr--Arg--Lys --DLys--Pro --Tyr--Arg--Lys--Cys--Arg--NH2] (Ac-RRWCYRK[dK]PYRKCR-NH2; disulfide 4-13) | 78.14 µg/mL (≈ 38.3 µM) | 3256 | 0.024 µg/mL (≈ 0.0118 µM) | – | – | – | – | – |
| CCCCCCCCCCCCCC(=O)N[C@@H](CCCNC(=N)N)C(=O)N[C@@H](CCCNC(=N)N)C(=O)N[C@@H](Cc1c[nH]c2ccccc12)C(=O)N[C@H]1CSSC[C@@H](C(=O)N[C@@H](CCCNC(=N)N)C(N)=O)NC(=O)[C@H](CCCCN)NC(=O)[C@H](CCCNC(=N)N)NC(=O)[C@H](Cc2ccc(O)cc2)NC(=O)[C@@H]2CCCN2C(=O)[C@@H](CCCCN)NC(=O)[C@H](CCCCN)NC(=O)[C@H](CCCNC(=N)N)NC(=O)[C@H](Cc2ccc(O)cc2)NC1=O [Polypeptide (17), Myr--Arg--Arg --Trp--Cys--Tyr--Arg--Lys --DLys--Pro --Tyr--Arg--Lys--Cys--Arg--NH2] (Myristoyl-RRWCYRK[dK]PYRKCR-NH2; disulfide 4-13) | 106.60 µg/mL (≈ 48.3 µM) | 1838 | 0.055 µg/mL (≈ 0.0249 µM) | – | – | – | – | – |
| N=C(N)NCCC[C@H](NC(=O)[C@@H]1CSSC[C@H](NC(=O)[C@H](Cc2c[nH]c3ccccc23)NC(=O)[C@H](CCCNC(=N)N)NC(=O)[C@H](CCCNC(=N)N)NC(=S)Nc2ccc3c(c2)C(=O)OC32c3ccc(O)cc3Oc3cc(O)ccc32)C(=O)N[C@@H](Cc2ccc(O)cc2)C(=O)N[C@@H](CCCNC(=N)N)C(=O)N[C@@H](CCCCN)C(=O)N[C@H](CCCCN)C(=O)N2CCC[C@H]2C(=O)N[C@@H](Cc2ccc(O)cc2)C(=O)N[C@@H](CCCNC(=N)N)C(=O)N[C@@H](CCCCN)C(=O)N1)C(N)=O [Polypeptide (19), FTC--Arg--Arg --Trp--Cys--Tyr--Arg--Lys --DLys--Pro --Tyr--Arg--Lys--Cys--Arg--NH2] ({FITC}-RRWCYRK[dK]PYRKCR-NH2; disulfide 4-13) | 38.47 µg/mL (≈ 16.1 µM) | 39285 | – | – | – | – | – | – |
| N=C(N)NCCC[C@H](NC(=O)[C@@H]1CSSC[C@H](NC(=O)[C@H](Cc2c[nH]c3ccccc23)NC(=O)[C@H](CCCNC(=N)N)NC(=O)[C@@H](N)CCCNC(=N)N)C(=O)N[C@@H](Cc2ccc(O)cc2)C(=O)N[C@@H](CCCNC(=N)N)C(=O)N[C@@H](CCCCN)C(=O)N[C@H]2CSSC[C@H](NC(=O)[C@H](Cc3ccc(O)cc3)NC(=O)CNC(=O)[C@H](CCCCN)NC(=O)[C@H](Cc3ccc(O)cc3)NC2=O)C(=O)N[C@@H](Cc2ccc(O)cc2)C(=O)N[C@@H](CCCNC(=N)N)C(=O)N[C@@H](CCCCN)C(=O)N1)C(N)=O [Polypeptide T-22, reference compound] (H-RRWCYRKCYKGYCYRKCR-NH2; disulfide 4-17, 8-13 (inferred); N-terminus assumed) | 49.4 µg/mL (≈ 19.9 µM) | – | 0.017 µg/mL (≈ 0.00684 µM) | 54.1 µg/mL (≈ 21.8 µM) | – | 0.0099 µg/mL (≈ 0.00398 µM) | 5,465 | – |
